Broadly, the IC50 is the concentration that inhibits the measured activity by half.

These results are taken from PMC4508201 (Organic & biomolecular chemistry, 2015).

The target in one experiment is S1PR1 (Homo sapiens, UniProt P21453). Put plainly: [32P]S1P competitive cell membrane binding assay, S1PR1.
The target in a further experiment is S1PR3 (Homo sapiens, UniProt Q99500). As to the kind of experiment: [32P]S1P competitive cell membrane binding assay, S1PR3.
The target of the next experiment is recombinant human S1PR2 (Homo sapiens, UniProt O95136). Put plainly: [32P]S1P competitive cell membrane binding assay, S1PR2.
Setting [1] is: IC50 S1PR2, competition against [32P]S1P, CHO cell membrane.

Molecules are shown by their SMILES. Where two headings read alike, the source gives them in different places. A value given as a limit tells only on which side of the number the result lay.

Sequence of S1PR3 (Q99500 whole entry, species assumed): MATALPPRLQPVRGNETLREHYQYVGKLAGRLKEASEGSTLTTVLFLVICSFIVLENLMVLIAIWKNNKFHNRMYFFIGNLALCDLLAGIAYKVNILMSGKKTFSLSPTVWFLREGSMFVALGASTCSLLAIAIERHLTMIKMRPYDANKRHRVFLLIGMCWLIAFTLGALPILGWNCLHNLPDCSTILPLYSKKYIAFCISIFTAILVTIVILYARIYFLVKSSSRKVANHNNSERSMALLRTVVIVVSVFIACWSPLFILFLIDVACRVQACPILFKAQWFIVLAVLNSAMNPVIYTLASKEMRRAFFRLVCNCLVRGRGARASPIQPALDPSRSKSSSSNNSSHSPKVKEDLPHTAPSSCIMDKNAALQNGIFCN
Sequence of S1PR1 (P21453 whole entry, species assumed): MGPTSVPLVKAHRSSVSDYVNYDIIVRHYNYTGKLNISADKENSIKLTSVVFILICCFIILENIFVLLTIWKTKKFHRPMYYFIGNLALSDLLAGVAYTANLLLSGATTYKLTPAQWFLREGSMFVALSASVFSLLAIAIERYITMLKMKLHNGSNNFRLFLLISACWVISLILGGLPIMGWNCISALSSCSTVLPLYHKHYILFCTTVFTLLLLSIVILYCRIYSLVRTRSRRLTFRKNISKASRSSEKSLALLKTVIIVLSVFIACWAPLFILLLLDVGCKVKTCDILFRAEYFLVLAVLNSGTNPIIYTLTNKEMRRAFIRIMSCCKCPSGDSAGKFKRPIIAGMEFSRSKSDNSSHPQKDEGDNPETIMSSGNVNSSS
Sequence of recombinant human S1PR2 (O95136 whole entry): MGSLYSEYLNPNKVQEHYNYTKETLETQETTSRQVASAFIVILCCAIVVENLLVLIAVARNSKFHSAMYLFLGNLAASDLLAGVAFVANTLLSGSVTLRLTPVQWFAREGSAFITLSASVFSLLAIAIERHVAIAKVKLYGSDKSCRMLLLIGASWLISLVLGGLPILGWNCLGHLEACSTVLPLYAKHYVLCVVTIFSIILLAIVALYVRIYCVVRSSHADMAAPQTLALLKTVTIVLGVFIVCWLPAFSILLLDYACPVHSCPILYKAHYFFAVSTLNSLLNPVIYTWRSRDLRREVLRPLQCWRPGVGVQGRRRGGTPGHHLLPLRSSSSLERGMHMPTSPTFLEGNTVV

With `Cc1nn(C)c2nc(NNC(=O)Nc3cc(F)nc(Cl)c3)cc(C(C)C)c12` [Compound 5b, N-(2-Chloro-6-fluoropyridin-4-yl)-2-(4-isopropyl-1,3-dimethyl-1H-pyrazolo[3,4-b]pyridin-6-yl)hydrazine-1-carboxamide], the IC50 on S1PR1 was over 1000 nM; at S1PR3 it was over 1000 nM; at recombinant human S1PR2 (setting [1]), 135 nM.
Consider `Cc1nn(C)c2nc(NNC(=O)Nc3cc(Cl)nc(OCCF)c3)cc(C(C)C)c12` [Compound 5f, N-(2-Chloro-6-(2-fluoroethoxy)pyridin-4-yl)-2-(4-isopropyl-1,3-dimethyl-1H-pyrazolo[3,4-b]pyridin-6-yl)hydrazine-1-carboxamide], for which the results for the IC50 at S1PR1, at S1PR3 and at recombinant human S1PR2 (setting [1]) were over 1000 nM, over 1000 nM and 8.12 ± 0.62 nM, respectively.
In the case of `COCn1c(Cl)cc(NC(=O)NNc2cc(C(C)C)c3c(C)nn(C)c3n2)cc1=O` [Compound 5d, N-(6-Chloro-1-(methoxymethyl)-2-oxo-1,2-dihydropyridin-4-yl)-2-(4-isopropyl-1,3-dimethyl-1H-pyrazolo[3,4-b]pyridin-6-yl)hydrazine-1-carboxamide], the IC50 at S1PR1, on S1PR3 and on recombinant human S1PR2 (setting [1]) was over 1000 nM in each case. In addition, the “IC50 S1PR2” value on recombinant human S1PR2 (competition against [32P]S1P, CHO cell membrane) was “No binding potency”.
As to `COCOc1cc(NC(=O)NNc2cc(C(C)C)c3c(C)nn(C)c3n2)cc(Cl)n1` [Compound 5e, N-(2-Chloro-6-(methoxymethoxy)pyridin-4-yl)-2-(4-isopropyl-1,3-dimethyl-1H-pyrazolo[3,4-b]pyridin-6-yl)hydrazine-1-carboxamide], the IC50 is over 1000 nM on S1PR1, over 1000 nM at S1PR3 and 8.09 ± 0.91 nM on recombinant human S1PR2 (setting [1]).
Regarding `COCCOc1cc(NC(=O)NNc2cc(C(C)C)c3c(C)nn(C)c3n2)cc(Cl)n1` [Compound 5c, N-(2-Chloro-6-(2-methoxyethoxy)pyridin-4-yl)-2-(4-isopropyl-1,3-dimethyl-1H-pyrazolo[3,4-b]pyridin-6-yl)hydrazine-1-carboxamide], the results for the IC50 at S1PR1, on S1PR3 and at recombinant human S1PR2 (setting [1]) were over 1000 nM, over 1000 nM and 234 nM, respectively.
In the case of `COc1cc(NC(=O)NNc2cc(C(C)C)c3c(C)nn(C)c3n2)cc(Cl)n1` [Compound 5a, N-(2-Chloro-6-methoxypyridin-4-yl)-2-(4-isopropyl-1,3-dimethyl-1H-pyrazolo[3,4-b]pyridin-6-yl)hydrazine-1-carboxamide], the IC50 at S1PR1 is over 1000 nM; on S1PR3, over 1000 nM; at recombinant human S1PR2 (setting [1]), 9.52 ± 0.7 nM. In addition, on recombinant human S1PR2 (ratio of IC50 values), the “Binding potency for S1PR2 relative to JTE-013” value was “seven-fold more potent”.
With `Cc1nn(C)c2nc(NNC(=O)Nc3cc(Cl)nc(Cl)c3)cc(C(C)C)c12` [JTE-013, reference compound], the IC50 was over 1000 nM at S1PR1 (read-out: IC50 S1PR1, competition against [32P]S1P); over 1000 nM at S1PR3 (read-out: IC50 S1PR3, competition against [32P]S1P); 68.5 ± 7.45 nM at recombinant human S1PR2 (read-out: IC50 S1PR2, competition against [32P]S1P, CHO cell membrane).
